Results published in patent publication US11969402B2, “Compositions and methods for skin rejuvenation” (THE JOHNS HOPKINS UNIVERSITY, priority 2019, dated 2024).

Columns and labels:
[1] = tested on: normal human keratinocytes; experiment: Transcriptome and proteome comparison of keratinocytes treated with Poly (I:C) or RA; type: cell-based; details: for identical gene transcripts inhibited by Poly (I:C) and RA: overlap of top ranked 100 downregulated transcripts; for identical gene transcripts induced by Poly (I:C) and RA: overlap of top ranked 100 upregulated transcripts; for overlap of inhibited proteins between Poly (I:C) and RA: top ranked 100 downregulated proteins; for overlap of induced proteins between Poly (I:C) and RA: top ranked 100 upregulated proteins
From the text: Microarray analysis. RNA isolated from keratinocytes with or without Poly (I:C) (GSE92646) and mouse wound tissues from wild type (C57BL/6NJ) and Tlr3^−/− with BMS493 and RA were submitted to the JHMI Deep Sequencing & Microarray core for Affymetrix® Human Exon 1.0ST and mouse microarray chip according to manufacturer's protocols. Raw gene expression signals in the form of Affymetrix CEL files were extracted and normalized with Partek® Genomics Suite™ software using the Robust Multichip Analysis (RMA) algorithm. Genes were ranked according to fold change of the intervention, and referred to as top or bottom induced if they are at the highest fold change (top) or lowest fold change (bottom). The significance of gene expression was measured by student's t-test analysis. These datasets generated during the current study are available in the NCBI GEO repository as listed above.
Proteomic analysis. For in vivo samples, wild-type and Tlr3^−/− unwounded and wounded skin where wound regions (center and edge area) were prepared for analysis. For in vitro samples, human primary scalp keratinocytes treated with 0.1 μM retinoic acid (RA) or 0.5 μg per ml Poly (I:C) and control were used. In vivo and in vitro samples were lysed in 5% sodium deoxycholate after washing in phosphate-buffered saline. Lysates were washed, reduced, alkylated and trypsinolyzed on filter as described by Wisniewski et al.^35 and Erde et al.^36. Tryptic peptides were separated on a nanoACQUITY UPLC analytical column (BEH130 C18, 1.7 μm, 75 μm×200 mm, Waters) over a 165 min linear acetonitrile gradient (3-40%) with 0.1% formic acid on a Waters nano-ACQUITY UPLC system, and analyzed on a coupled Thermo Scientific Orbitrap Fusion Tribrid mass spectrometer as described by Williamson et al.^37. Full scans were acquired at a resolution of 120,000, and precursors were selected for fragmentation by higher-energy collisional dissociation (normalized collision energy at 30%) for a maximum 3-second cycle. Tandem mass spectra were searched against a UniProt human reference proteome using MS Amanda algorithm described by Dorfer et al.^38 with a maximum precursor mass error tolerance of 10 ppm. Carbamidomethylation of cysteine and deamidation of asparagine and glutamine were treated as static and dynamic modifications, respectively. Resulting hits were validated at a maximum false discovery rate of 0.01 using a semi-supervised machine learning algorithm Percolator developed by Käll et al.^39. Protein abundance ratios were measured by comparing the MS1 peak volumes of peptide ions, whose identities were confirmed by MS2 sequencing as described above. The Label-free quantifications were performed using an aligned AMRT (Accurate Mass and Retention Time) cluster quantification algorithm Minora (Thermo Fisher Scientific, 2017). Pathway and gene ontology analysis were performed with Qiagen Ingenuity, Panther GO and DAVID databases, as described by Kramer et al.^40, Mi et al.^41, and Huang et al.^42, respectively.

[2] = tested on: Wound Induced Hair Neogenesis (WIHN); experiment: Wound Induced Hair Neogenesis (WIHN), regenerated hair follicles counted by CSLM; type: in vivo, mouse
Procedure: (§1) Wound Induced Hair Neogenesis (WIHN). All experiments were followed with the present inventors' WIHN protocol^1,9. Briefly, hair was shaved and a 1.2 cm^2 full-thickness skin on the backs of 21-day old (telogen) male and female mice was removed by sterile scissors. A single treatment of RA (30 μl) (0.1 μg per mouse) (Millipore Sigma, R2625) and BMS493 (30 μl) (0.1 μg per mouse) (Cayman Chemical, #17418) was applied topically onto open wound on WD1 of Tlr3^−/− and WT mice, respectively. Poly (I:C) (50 μl) (5 μg per mouse) (Invivogen, tlrl-pic) was injected under the healed scab on WD3 of WT mice as described before^9,34. On WD20-24, numbers of regenerated hair follicles were visualized and quantified in the re-epithelialized skin by non-invasive confocal scanning laser microscopy (CSLM) (Caliber I.D., VIVASCOPE 1500) as published^1,9. As a vehicle (Control), ethanol (EtOH), dimethylsulfoxide (DMSO), or PBS was treated for RA, BMS493, and Poly (I:C), respectively.

[3] = tested on: wounded skin; experiment: Retinoid levels in mouse skin (LC-MS/MS, HPLC-UV); type: in vivo; details: for ROL and RE in wounded skin: WT and Tlr3−/− mice
Procedure: as §1
Tissue preparation from wounded mice. Wild type (C57BL/6J and 6NJ) and Tlr3^−/− mice were wounded as did in WIHN experiments. On PWD11 when wounds are closed, the center and edge of the wound was separated by scissors. Skin samples were immediately frozen and saved in liquid nitrogen for further analysis.
Determination of Retinoid Levels. For in vitro samples, human scalp keratinocytes were incubated with 0.5 μg per ml of Poly (I:C) for 48 hrs or siRNAs-transfected cells were incubated with 0.1 μg per ml of Poly (I:C) for 48 hrs. For in vivo samples, skin was analyzed from wild-type and Tlr3^−/− unwounded and wounded skin where wound regions (center and edge area) were cut by scalpel. Human skin was analyzed for retinoids with and without CO2 laser treatment as described. All samples were frozen at collection and stored at −80° C. until extraction. For in vitro experiments, media and cell pellets were analyzed separately. For in vivo experiments, tissues were homogenized in saline. Extraction of retinoids was performed under yellow lights using a two-step liquid-liquid extraction that has been described in detail previously using 4,4-dimethyl-RA as an internal standard for RA and retinyl acetate as an internal standard for retinol and total retinyl ester^43-46. For the extraction of retinoids, 1 to 3 ml of 0.025 M KOH in ethanol was added to tissue homogenates (in vivo) or cell culture (in vitro) samples. Then 10 ml hexane (for in vivo tissue sample) or 5 ml hexane (for in vitro cell culture sample) was added to the aqueous ethanol phase. The samples were vortexed and centrifuged for 1 to 3 min at 1000 rpm in a Dynac centrifuge (Becton Dickinson) to facilitate phase separation and pellet precipitated protein. The hexane (top) phase containing nonpolar retinoids (ROL and RE) was removed. 4 M HCl (60-180 μl) was added to the remaining aqueous ethanol phase, samples were vortexed, and then polar retinoids (RA) were removed by extraction with a second 5-10 ml aliquot of hexane as described above. Organic hexane phases were evaporated under nitrogen while heating at approximately 25 to 30° C. in a water bath (model N-EVAP 112, Organomation Associates, Berlin, MA, USA). All samples were resuspended in 60 μl acetonitrile. Only glass containers, pipettes, and syringes were used to handle retinoids.
Levels of RA were determined by liquid chromatography-multistage tandem mass spectrometry (LC-MRM^3) which is an LC-MS/MS method utilizing two distinct fragmentation events for enhanced selectivity^43. RA was measured using a Shimadzu Prominence UFLC XR liquid chromatography system (Shimadzu, Columbia, MD) coupled to an AB Sciex 5500 or 6500+ QTRAP hybrid triple quadrupole mass spectrometer (AB Sciex, Framingham, MA) using atmospheric pressure chemical ionization (APCI) operated in positive ion mode as previously described^43. […]

Molecule | identical gene transcripts inhibited by Poly (I:C) and RA [1] [%] | identical gene transcripts induced by Poly (I:C) and RA [1] [%] | overlap of inhibited proteins between Poly (I:C) and RA [1] [%] | overlap of induced proteins between Poly (I:C) and RA [1] [%] | hair follicle regeneration (WIHN) ([2]; Tlr3−/− mice, topical 0.1 μg per mouse on WD1) | WIHN ([2]; WT mice, supraphysiologic doses of RA) | tissue RA levels prior to morphogenesis ([3]; Tlr3−/− mice, exogenous RA) | ROL and RE in wounded skin ([3]; RA vs ethanol) | hair follicle regeneration (WIHN) ([2]; MDA5−/− mice, similar to WT) | new hair follicle formation (WIHN) ([2]; WT mice, single injection 5 μg per mouse on WD3) | amount of RA during wound healing ([3]; Tlr3−/− mice) | ROL and RE in wounded skin ([3]; Poly (I:C) vs PBS) | amount of RA during wound healing ([3]; WT mice) | RA in center of the wound before morphogenesis ([3]; wild type mice, PWD11, center vs edge, not in Tlr3−/− mice)
CC1=C(/C=C/C(C)=C/C=C/C(C)=C/C(=O)O)C(C)(C)CCC1 [RA, all-trans-retinoic acid] | 18 | 13 | 36 | 61 | modestly increased | do not modify | measurable increases | not significant | – | – | – | – | – | –
Polyinosinic-polycytidylic acid [Poly (I:C)] | 18 | 13 | 36 | 61 | – | – | – | – | induces hair follicle regeneration | stimulates new hair follicle formation | much less so | not significant | substantially increased | accumulates more RA
